{"source": "paper PMC6811774", "about": "“Potent, selective, and subunit‐dependent activation of TRPC5 channels by a xanthine derivative” (British Journal of Pharmacology, 2019)", "type_in_all_cases": "cell-based", "key": {"TRPC4:C1 channels [1]": {"target": "T1, TRPC4:C1 channels (Homo sapiens, UniProt P48995+Q9UBN4)", "T1 sequence (Q9UBN4 whole entry)": "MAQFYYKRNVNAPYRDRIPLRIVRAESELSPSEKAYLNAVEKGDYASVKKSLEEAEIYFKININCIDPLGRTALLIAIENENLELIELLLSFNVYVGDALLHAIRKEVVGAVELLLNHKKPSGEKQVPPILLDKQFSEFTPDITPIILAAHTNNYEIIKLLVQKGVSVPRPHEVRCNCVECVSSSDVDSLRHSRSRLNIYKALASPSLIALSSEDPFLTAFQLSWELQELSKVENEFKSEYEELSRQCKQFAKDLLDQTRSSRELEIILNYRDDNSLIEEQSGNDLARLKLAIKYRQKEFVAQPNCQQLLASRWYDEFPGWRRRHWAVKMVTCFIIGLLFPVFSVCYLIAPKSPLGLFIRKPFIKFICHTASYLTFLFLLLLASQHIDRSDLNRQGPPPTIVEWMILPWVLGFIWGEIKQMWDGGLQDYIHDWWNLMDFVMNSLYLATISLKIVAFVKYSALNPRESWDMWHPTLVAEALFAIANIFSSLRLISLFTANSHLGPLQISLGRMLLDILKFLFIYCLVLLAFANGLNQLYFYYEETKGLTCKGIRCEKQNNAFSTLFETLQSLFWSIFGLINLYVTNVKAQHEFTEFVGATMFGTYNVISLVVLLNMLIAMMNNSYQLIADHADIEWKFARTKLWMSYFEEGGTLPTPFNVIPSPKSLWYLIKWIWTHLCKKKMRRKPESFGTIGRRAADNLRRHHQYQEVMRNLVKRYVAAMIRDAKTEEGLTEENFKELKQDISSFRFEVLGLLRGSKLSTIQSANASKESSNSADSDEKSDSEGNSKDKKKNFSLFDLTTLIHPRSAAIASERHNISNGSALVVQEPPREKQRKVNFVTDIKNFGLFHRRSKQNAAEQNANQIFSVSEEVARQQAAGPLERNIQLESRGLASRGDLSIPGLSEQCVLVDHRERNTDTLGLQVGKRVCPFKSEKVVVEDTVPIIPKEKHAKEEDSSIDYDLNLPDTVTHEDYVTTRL", "T1 sequence (P48995 whole entry)": "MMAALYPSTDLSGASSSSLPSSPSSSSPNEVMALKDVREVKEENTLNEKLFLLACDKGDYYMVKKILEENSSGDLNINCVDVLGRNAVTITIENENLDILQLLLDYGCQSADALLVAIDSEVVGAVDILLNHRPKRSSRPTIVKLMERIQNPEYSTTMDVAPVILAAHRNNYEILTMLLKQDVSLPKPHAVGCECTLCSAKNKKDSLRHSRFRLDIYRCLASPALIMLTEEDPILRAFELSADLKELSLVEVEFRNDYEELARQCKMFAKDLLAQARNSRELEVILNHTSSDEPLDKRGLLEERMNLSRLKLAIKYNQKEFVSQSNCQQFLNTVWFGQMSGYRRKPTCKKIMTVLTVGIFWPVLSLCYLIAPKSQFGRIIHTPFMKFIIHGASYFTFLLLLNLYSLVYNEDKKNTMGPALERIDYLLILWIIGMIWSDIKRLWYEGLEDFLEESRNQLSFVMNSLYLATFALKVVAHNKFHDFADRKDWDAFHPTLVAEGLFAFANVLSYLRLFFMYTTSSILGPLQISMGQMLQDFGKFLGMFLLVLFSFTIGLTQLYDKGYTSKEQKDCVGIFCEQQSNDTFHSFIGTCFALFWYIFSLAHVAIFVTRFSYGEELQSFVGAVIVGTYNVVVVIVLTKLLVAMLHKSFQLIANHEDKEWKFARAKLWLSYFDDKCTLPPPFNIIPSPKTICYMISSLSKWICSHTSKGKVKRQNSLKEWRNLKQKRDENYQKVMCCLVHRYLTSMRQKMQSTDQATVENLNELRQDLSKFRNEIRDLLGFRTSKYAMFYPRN", "experiment": "Excised outside-out patch-clamp, HEK 293 cells transiently co-expressing hTRPC4 and hTRPC1", "design": "expressed in transfected cells; host or cells: HEK 293 (transient co-expression)", "details": "30 nM EA; at 3 to 100 nM AM237", "experimental": "For electrophysiology experiments, cells were plated at a low density of 20–30% onto round or square glass coverslips (13 mm diameter or 5 × 5 mm), and TRPC expression in HEK T‐REx was induced with 1 μg·ml^−1 tetracycline 24 hr before experimentation. Experiments were carried out at room temperature. Extracellular solution consisted of SBS. Patch‐clamp recordings were performed in whole‐cell mode (Figure S7) and in excised outside‐out patch mode under voltage clamp at room temperature using 2–4 MΩ patch pipettes fabricated from borosilicate glass capillaries with an outside diameter of 1 mm and an inside diameter of 0.58 mm (Harvard Apparatus). The voltage protocol comprised voltage ramps applied from −100 to +100 mV every 10 s from a holding potential of 0 mV. The patch‐clamp currents were recorded using Axopatch 200B or HEKA EPC‐800 amplifiers, digitized by a Digidata 1440 or PCI6229 (National Instruments Japan, Tokyo, Japan) and recorded to a computer using pCLAMP10 (Molecular Devices) or WinWCPV4.5 (developed by Dr John Dempster, University of Strathclyde, UK). The data were filtered at 1 kHz and analysed offline using Clampfit 10.2 software or WinWCPV4.5 and Origin 9.1 software (OriginLab, Northampton, MA). […]"}, "TRPM2": {"target": "T2, TRPM2 (Homo sapiens, UniProt O94759)", "T2 construct": "expressed in transfected cells", "T2 sequence (O94759 whole entry)": "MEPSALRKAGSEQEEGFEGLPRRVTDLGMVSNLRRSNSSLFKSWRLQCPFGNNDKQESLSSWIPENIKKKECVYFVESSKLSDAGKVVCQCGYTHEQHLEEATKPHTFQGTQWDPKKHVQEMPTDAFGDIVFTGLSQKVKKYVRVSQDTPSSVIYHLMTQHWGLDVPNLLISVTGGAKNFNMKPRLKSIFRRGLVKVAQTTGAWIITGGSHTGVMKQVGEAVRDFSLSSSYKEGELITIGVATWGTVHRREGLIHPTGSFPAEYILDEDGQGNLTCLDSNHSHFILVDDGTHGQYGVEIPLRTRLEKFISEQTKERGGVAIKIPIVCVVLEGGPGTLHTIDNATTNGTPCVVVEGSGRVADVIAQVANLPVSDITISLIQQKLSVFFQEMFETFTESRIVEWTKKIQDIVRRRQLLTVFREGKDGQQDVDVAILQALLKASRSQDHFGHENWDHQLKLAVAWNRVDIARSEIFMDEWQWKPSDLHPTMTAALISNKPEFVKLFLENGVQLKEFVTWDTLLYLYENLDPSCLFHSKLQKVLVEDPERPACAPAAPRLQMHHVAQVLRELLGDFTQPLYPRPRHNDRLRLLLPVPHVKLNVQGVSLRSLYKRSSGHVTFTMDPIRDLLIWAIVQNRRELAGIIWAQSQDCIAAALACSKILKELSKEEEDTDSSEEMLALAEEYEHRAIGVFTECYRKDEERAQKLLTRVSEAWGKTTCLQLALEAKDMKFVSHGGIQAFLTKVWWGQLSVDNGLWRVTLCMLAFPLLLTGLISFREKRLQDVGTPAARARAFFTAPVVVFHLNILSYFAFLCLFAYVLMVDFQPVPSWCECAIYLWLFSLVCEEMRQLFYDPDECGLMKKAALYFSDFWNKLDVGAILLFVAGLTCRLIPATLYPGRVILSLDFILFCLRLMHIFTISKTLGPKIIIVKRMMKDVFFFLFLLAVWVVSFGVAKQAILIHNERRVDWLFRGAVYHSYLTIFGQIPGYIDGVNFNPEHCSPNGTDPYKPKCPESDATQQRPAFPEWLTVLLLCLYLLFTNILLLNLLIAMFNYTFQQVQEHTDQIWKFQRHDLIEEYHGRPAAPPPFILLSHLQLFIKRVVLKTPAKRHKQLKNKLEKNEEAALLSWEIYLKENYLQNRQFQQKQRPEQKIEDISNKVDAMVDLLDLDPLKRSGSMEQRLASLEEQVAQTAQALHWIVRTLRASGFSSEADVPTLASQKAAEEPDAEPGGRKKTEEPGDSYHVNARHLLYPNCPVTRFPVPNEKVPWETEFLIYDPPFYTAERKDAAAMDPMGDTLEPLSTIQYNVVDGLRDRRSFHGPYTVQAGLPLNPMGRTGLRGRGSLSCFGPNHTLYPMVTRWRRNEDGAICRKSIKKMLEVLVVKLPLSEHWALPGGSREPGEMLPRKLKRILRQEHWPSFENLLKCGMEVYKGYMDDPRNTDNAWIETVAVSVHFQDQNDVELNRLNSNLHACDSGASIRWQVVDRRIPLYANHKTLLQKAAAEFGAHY", "experiment": "[Ca2+]i selectivity assay, (Tet+) HEK T-REx cells expressing TRPM2, H2O2 activation", "details": "300 nM AM237; 1 mM H2O2"}, "TRPC4:C1 channels [2]": {"target": "T1, TRPC4:C1 channels", "experiment": "[Ca2+]i measurement in (Tet+) HEK T-REx cells expressing hTRPC4-C1 concatemer", "experimental": "HEK T‐REx™ cell line was transfected with TRPC5‐SYFP2 or TRPC4‐SYFP2 using FuGENE® HD transfection reagent. After 48 hr, cells were put under antibiotic selection using 400 μg·ml^−1 zeocin and 10 μg·ml^−1 blasticidin S (Invivogen, San Diego, California, USA). Medium changes were carried out regularly to remove dead cells. HEK T‐REx cells expressing tetracycline‐inducible human TRPC5, TRPC4–C1, and TRPC5–C1 were created as described previously (Akbulut et al., 2015; Ludlow et al., 2017; Rubaiy, Ludlow, Henrot, et al., 2017). TRPC5–C1 and TRPC4–C1 concatemers allow expression of functional channels with defined 2:2 stoichiometry that display ion permeability and current–voltage relationships distinct from those of homomeric TRPC4:C4 or TRPC5:C5 channels and consistent with those obtained upon co‐expression of TRPC1 with TRPC4 or TRPC5 (Ludlow et al., 2017; Rubaiy, Ludlow, Bon, & Beech, 2017; Rubaiy, Ludlow, Henrot, et al., 2017). Cells were cultured in DMEM‐F12 GlutaMAX (Invitrogen, Paisley, UK) containing 10% FBS (Sigma‐Aldrich, Gillingham, UK), with the addition of blasticidin (10 μg·ml^−1) and zeocin (400 μg·ml^−1) to maintain the stable incorporation of the tetracycline repressor and the channel of interest, respectively. Expression of proteins was induced by the addition of tetracycline (1 μg·ml^−1, 24 hr). Cells were maintained in a humidified incubator with 5% CO2 at 37°C. HEK 293 cells stably expressing tetracycline‐regulated human http://www.guidetopharmacology.org/GRAC/ObjectDisplayForward?objectId=494 were prepared similarly and have also been described previously (McHugh, Flemming, Xu, Perraud, & Beech, 2003). For experiments using transient co‐expression of TRPC1 and TRPC5, HEK cells at 40–60% confluency were transfected with pIRES2‐AcGFP1 and pIRES2‐DsRed‐Express2 plasmids containing human TRPC1 and TRPC5, respectively, using Lipofectamine 3000 (ThermoFisher Scientific, Yokohama, Japan). All experiments using transient expression were performed within 48 hr after transfection. […]"}}, "data": [{"smiles": "Cn1c(=O)n(CCCO)c(=O)c2c1nc(Oc1ccc(Cl)c(OC(F)(F)F)c1)n2Cc1ccc(Cl)cc1", "note": "[AM237]", "values": [{"measurement": "Inhibition of currents induced by EA", "setting": "TRPC4:C1 channels [1]", "value": "full inhibition"}, {"measurement": "Activation or inhibition of TRPM2", "setting": "TRPM2", "value": "no activation or inhibition"}, {"measurement": "Hill slope, inhibition of EA response", "setting": "TRPC4:C1 channels [2]", "value": "–1.3"}, {"measurement": "Effect of pretreatment on basal [Ca2+]i", "setting": "TRPC4:C1 channels [2]; 0.03–30 nM AM237", "value": "did not affect"}, {"measurement": "Activation upon acute administration ([Ca2+]i)", "setting": "TRPC4:C1 channels [2]; 3-300 nM AM237", "value": "lack of activation"}]}]}
